In EP0068669A1, “Secondary phenylethanol amines, processes for their preparation and their pharmaceutical application” (priority 1981, dated 1983):

Key:
Assay type in all cases: in vivo
[1] = system: Male CFLP mice; experiment: Platelet aggregation inhibition activity, response to intravenous collagen; conditions: oral dose two hours before intravenous collagen 400 µg/kg; blood platelet concentration 30 sec after collagen; Aspirin 600(108), Example 8 2.5 (1) µmol(mg)/kg p.o.
Description: Male CFLP mice (ca 20 g, n=8) were dosed orally with compound or vehicle (controls) after an overnight fast. Two hours later each mouse received an intravenous dose of collagen (400 µg/kg, pH 6-6.6). Exactly 30 sec after injection of collagen, each mouse was placed in a chamber of C02 until respiration ceased. […] Each concentration was expressed as a per cent of that obtained in a tail blood sample taken immediately before injection of collagen.

[2] = system: Female CFLP mice; experiment: Effect on energy expenditure and food intake of mice; conditions: 19.5-26.3 mg/kg p.o. (per compound, see Dose column); for Mean Food Intake: percentage of mean food intake of mice dosed with water, over 21 hours after a single oral dose; for Mean Energy Expenditure (0-3 h) / Mean Energy Expenditure (0-21 h): percentage of mean rate of energy expenditure of mice dosed with water, single oral dose, 12 mice; for Mean Energy Expenditure (0-3 h): 0-3 h after dosing; for Mean Energy Expenditure (0-21 h): 0-21 h after dosing
Description: The compounds were dissolved in water by addition of one mole of hydrochloric acid per mole of compound and these solutions were administered orally to each of 12 mice. A further 12 mice were dosed orally with water. The mice were placed in boxes through which air was drawn and the oxygen content of the air leaving the boxes was measured. The energy expenditure of the mice was calculated for 21 hours after dosing from the volume of air leaving the boxes and its oxygen content, following the principles described by J.B. de V. Weir, J. Ph^ysiol. (London) 109, 1-9, (1949). The food intake of the mice was measured over this same period of 21 hours. The results are expressed as a percentage of the mean food intake or rate of energy expenditure of the mice dosed with water.

[3] = system: Female CFLP mice; experiment: Hypoglycaemic activity, subcutaneous glucose load in fasted mice; conditions: oral dose 1.0-12.5 μmol/kg (per compound, see Dose column), 30 minutes before glucose 1 g/kg subcutaneously; area over 2 hours compared with control mice given water; mice fasted 24 hours
Description: Female CFLP mice, weighing approximately 25 g, were fasted for 24 hours prior to the study. The compounds under study were administered orally as an aqueous solution to each of 8 mice. 30 minutes later a blood sample (20 µℓ) was obtained from the tail for the analysis of blood glucose. Immediately after taking this blood sample, glucose (1 g/kg body weight) was administered subcutaneously to each mouse. 8 mice were given water as a control. Blood samples were then obtained from each mouse at 30-minute intervals for 120 minutes.
Compounds that produced a significant (P<0.05) reduction of blood glucose, compared with control mice given water, at any time interval , were considered active. The area under the blood glucose curve over the 2 hour period after the administration of the glucose was calculated for each compound and compared with the value for control animals.

Row | SMILES | % Inhibition of response to collagen [1] | Mean Food Intake [2] | Mean Energy Expenditure (0-3 h) [2] | Mean Energy Expenditure (0-21 h) [2] | % Reduction in area under Blood glucose curve [3]
1 | CC(=O)Oc1ccccc1C(=O)O [Aspirin, reference compound] | 38 p<0.05% |  |  |  | 
2 | CC(Cc1ccc(NS(C)(=O)=O)cc1)NCC(O)c1ccccc1 (centres unmarked) [Example 1, N-(2-(4-Methylsulphonylaminophenyl)-1-methylethyl]-2-hydroxy-2-phenylethanamine] |  | 80 percentage | 130 percentage | 95 percentage | 24.7%
3 | CC(Cc1ccc(NS(C)(=O)=O)cc1)NCC(O)c1cccc(C(F)(F)F)c1 (centres unmarked) [Example 2, N-[2-(4-Methylsulphonylaminophenyl)-1-methylethyl]-2-hydroxy-2-(3-trifluoromethylphenyl)ethanamine] |  | 99 percentage | 142 percentage | 102 percentage | 
4 | CCOC(=O)Nc1ccc(CC(C)NCC(O)c2cccc(C(F)(F)F)c2)cc1 (centres unmarked) [Example 3, N-[2-(4-Ethoxycarbonylaminophenyl)-1-methylethyl]-2-hydroxy-2-(3-trifluoromethylphenyl)ethanamine] |  | 76 percentage | 139 percentage | 121 percentage | 
5 | CC(=O)Nc1ccc(CC(C)NCC(O)c2cccc(C(F)(F)F)c2)cc1 (centres unmarked) [Example 4, N-(2-(4-Acetylaminophenyl)-1-methylethyl)-2-hydroxy-2-(3-trifluoromethylphenyl)ethanamine] |  | 72 percentage | 151 percentage | 115 percentage | 15.9%
6 | CNC(=O)Nc1ccc(CC(C)NCC(O)c2cccc(C(F)(F)F)c2)cc1 (centres unmarked) [Example 5, N-[2-(4-Methylaminocarbonylaminophenyl)-1-methylethyl]-2-hydroy-2-(3-trifluoromethylphenyl)ethanamine] |  | 72 percentage | 159 percentage | 121 percentage | 
7 | CCNc1ccc(CC(C)NCC(O)c2cccc(C(F)(F)F)c2)cc1 (centres unmarked) [Example 6, N-[2-(4-Ethylaminophenyl)-1-methylethyl]-2-hydroxy-2-(3-trifluoromethvlphenvl)ethanamine] |  | 108 percentage | 169 percentage | 128 percentage | 
8 | CC(Cc1ccc(N)cc1)NCC(O)c1cccc(C(F)(F)F)c1 (centres unmarked) [Example 7, N-[2-(4-Aminophenyl)-1-methylethyl]-2-hydroxy-2-(3-trifluoromethylphenyl) ethanamine] |  | 84 percentage | 182 percentage | 118 percentage | 38.0%
9 | COC(=O)CNc1ccc(CC(C)NCC(O)c2cccc(C(F)(F)F)c2)cc1 (centres unmarked) [Example 8, N-[2-(4-Methoxycarbonylmethylaminophenyl)-1-methylethyl] -2-hydroxy-2-(3-trifluoromethylphenyl) ethanamine] | 42 p<0.02% |  | 140 percentage |  | 36.2%
10 | CC(Cc1ccc([N+](=O)[O-])cc1)NCC(O)c1cccc(C(F)(F)F)c1 (centres unmarked) [Example 9, N-[2-(4-Nitrophenyl)-1-methylethyl]-2-hydroxy-2-(3-trifluoromethylphenyl) ethanamine] |  | 94 percentage | 112 percentage | 115 percentage | 13.2%
11 | CC(Cc1ccc(N(C)C)cc1)NCC(O)c1cccc(C(F)(F)F)c1 (centres unmarked) [Example 10, N-[2-(4-Dimethylaminophenyl]-1-methylethyl]-2-hydroxy-2-(3-trifluoromethylphenvl)ethanamine] |  | 70 percentage | 169 percentage | 125 percentage | 
12 | CC(Cc1ccc(N2CCCC2)cc1)NCC(O)c1cccc(C(F)(F)F)c1 (centres unmarked) [Example 11, N-[2-(4-(1-Pyrrolidyl)phenyl)-1-methylethyl] -2-hydroxy-2-(3-trifluoromethylphenyl)ethanamine] |  | 95 percentage | 151 percentage | 112 percentage | 
13 | CC(Cc1ccc(N2CCOCC2)cc1)NCC(O)c1cccc(C(F)(F)F)c1 (centres unmarked) [Example 12, N-[2-(4-(4-Morpholino)phenyl)-1-methylethyl]-2-hydroxy-2-(3-trifluoromethylphenyl)ethanamine] |  | 72 percentage | 143 percentage | 121 percentage | 
14 | CCOC(=O)C1CCN(c2ccc(CC(C)NCC(O)c3cccc(C(F)(F)F)c3)cc2)CC1 (centres unmarked) [Example 13, N-[2-(4-(1-(4-Carboethoxy)piperidyl)phenyl)-1-methylethyl]-2-hydroxy-2-(3-trifluoromethylphenyl)ethanamine] |  | 95 percentage | 121 percentage | 103 percentage | 
15 | CNC(=O)C1CCN(c2ccc(CC(C)NCC(O)c3cccc(C(F)(F)F)c3)cc2)CC1 (centres unmarked) [Example 14, N-[2-(4-(1-(4-N'-Methylcarboxamido)piperidyl)phenyl)-1-methylethyl]-2-hydroxy-2-(3-trifluoromethylphenyl)ethanamine] |  | 106 percentage | 118 percentage | 102 percentage | 
